Results as given in ChEMBL document CHEMBL4396913, “Synthesis and biological evaluation of hybrid quinolone-based quaternary ammonium antibacterial agents” (Eur J Med Chem, 2019).
Active and inactive are the calls of the source. The rule behind the calls is not given here.

What was measured:
[1] = Lipophilicity, log k of the compound at 100 ug/ml by micellar electrokinetic chromatography; assay type: physicochemical
Staphylococcus aureus [2] = test: Antibacterial activity against Staphylococcus aureus ATCC 6538 cultured in MH medium assessed as reduction in bacterial growth incubated for 48 hrs by microbroth dilution method; assay type: functional; conditions: ATCC 6538, 48 h
Staphylococcus aureus [3] = test: Antibacterial activity against methicillin resistant Staphylococcus aureus N315 cultured in MH medium assessed as reduction in bacterial growth incubated for 48 hrs by microbroth dilution method; assay type: functional; conditions: N315, 48 h
Staphylococcus aureus [4] = test: Bactericidal activity against methicillin resistant Staphylococcus aureus N315 cultured in MH medium assessed as reduction in bacterial survival incubated for 48 hrs by microbroth dilution method; assay type: functional; conditions: N315, 48 h
[5] = tested on: Staphylococcus epidermidis; test: Antibacterial activity against Staphylococcus epidermidis ATCC 14990 cultured in MH medium assessed as reduction in bacterial growth incubated for 48 hrs by microbroth dilution method; assay type: functional; conditions: ATCC 14990, 48 h
[6] = tested on: Staphylococcus epidermidis; test: Bactericidal activity against Staphylococcus epidermidis ATCC 14990 cultured in MH medium assessed as reduction in bacterial survival incubated for 48 hrs by microbroth dilution method; assay type: functional; conditions: ATCC 14990, 48 h
Enterococcus hirae = test: Antibacterial activity against Enterococcus hirae ATCC 1052 cultured in BHI medium assessed as reduction in bacterial growth incubated for 48 hrs by microbroth dilution method; assay type: functional; conditions: ATCC 1052, 48 h
Bacillus spizizenii = test: Antibacterial activity against Bacillus subtilis ATCC 6633 cultured in MH medium assessed as reduction in bacterial growth incubated for 48 hrs by microbroth dilution method; assay type: functional; conditions: ATCC 6633, 48 h
Escherichia coli [7] = test: Bactericidal activity against Escherichia coli ATCC 8739 cultured in MH medium assessed as reduction in bacterial survival incubated for 48 hrs by microbroth dilution method; assay type: functional; conditions: ATCC 8739, 48 h
Pseudomonas aeruginosa [8] = test: Bactericidal activity against Pseudomonas aeruginosa ATCC 9027 cultured in MH medium assessed as reduction in bacterial survival incubated for 48 hrs by microbroth dilution method; assay type: functional; conditions: ATCC 9027, 48 h
Proteus vulgaris [9] = test: Antibacterial activity against Proteus vulgaris NCTC 4635 cultured in MH medium assessed as reduction in bacterial growth incubated for 48 hrs by microbroth dilution method; assay type: functional; conditions: NCTC 4635, 48 h
Proteus vulgaris [10] = test: Bactericidal activity against Proteus vulgaris NCTC 4635 cultured in MH medium assessed as reduction in bacterial survival incubated for 48 hrs by microbroth dilution method; assay type: functional; conditions: NCTC 4635, 48 h
Staphylococcus aureus [11] = test: Antibacterial activity against methicillin resistant Staphylococcus aureus 6347 cultured in MH medium assessed as reduction in bacterial growth incubated for 48 hrs by microbroth dilution method; assay type: functional; conditions: Staphylococcus aureus, 6347, 48 h
Staphylococcus aureus [12] = test: Bactericidal activity against methicillin resistant Staphylococcus aureus 6347 cultured in MH medium assessed as reduction in bacterial survival incubated for 48 hrs by microbroth dilution method; assay type: functional; conditions: Staphylococcus aureus, 6347, 48 h
Streptococcus pneumoniae [13] = test: Antibacterial activity against Streptococcus pneumoniae cultured in MH medium assessed as reduction in bacterial growth incubated for 48 hrs by microbroth dilution method; assay type: functional
Streptococcus pneumoniae [14] = test: Bactericidal activity against Streptococcus pneumoniae cultured in MH medium assessed as reduction in bacterial survival incubated for 48 hrs by microbroth dilution method; assay type: functional
Serratia marcescens [15] = test: Antibacterial activity against Serratia marcescens ATCC 12795 cultured in MH medium assessed as reduction in bacterial growth incubated for 48 hrs by microbroth dilution method; assay type: functional; conditions: ATCC 12795, 48 h
Serratia marcescens [16] = test: Bactericidal activity against Serratia marcescens ATCC 12795 cultured in MH medium assessed as reduction in bacterial survival incubated for 48 hrs by microbroth dilution method; assay type: functional; conditions: ATCC 12795, 48 h
Staphylococcus aureus [17] = test: Antibiofilm activity against Staphylococcus aureus ATCC 25923 assessed as reduction in biofilm viability at 2.5 to 20 uM incubated for 24 hrs compound added prior to bacterial biofilm formation by resazurin staining based assay relative to control; assay type: functional
[18] = molecular target: T1, DNA gyrase (Escherichia coli) (UniProt P0AES6+P0AES4); test: Inhibition of Escherichia coli DNA gyrase super-coiling activity using relaxed pNO1 DNA as substrate assessed as enzyme residual activity at 10 uM incubated for 30 mins by fluorescence assay relative to control; assay type: protein-complex assay
[19] = molecular target: T1, DNA gyrase (Escherichia coli); test: Inhibition of Escherichia coli DNA gyrase super-coiling activity using relaxed pNO1 DNA as substrate assessed as enzyme residual activity at 1 uM incubated for 30 mins by fluorescence assay relative to control; assay type: protein-complex assay
Pseudomonas aeruginosa [20] = test: Antibiofilm activity against Pseudomonas aeruginosa ATCC 9027 assessed as biofilm formation at antibacterial MIC incubated for 24 hrs compound added prior to bacterial biofilm formation by total biomass crystal violet staining-based method relative to control; assay type: functional
Staphylococcus aureus [21] = test: Antibiofilm activity against Staphylococcus aureus ATCC 6538 assessed as biofilm formation at antibacterial MIC incubated for 24 hrs compound added prior to bacterial biofilm formation by total biomass crystal violet staining-based method relative to control; assay type: functional
Pseudomonas aeruginosa [22] = test: Antibiofilm activity against Pseudomonas aeruginosa ATCC 9027 assessed as biofilm formation at 0.5 times antibacterial MIC incubated for 24 hrs compound added prior to bacterial biofilm formation by total biomass crystal violet staining-based method relative to control; assay type: functional
Staphylococcus aureus [23] = test: Antibiofilm activity against Staphylococcus aureus ATCC 6538 assessed as biofilm formation at 0.5 times antibacterial MIC incubated for 24 hrs compound added prior to bacterial biofilm formation by total biomass crystal violet staining-based method relative to control; assay type: functional
Pseudomonas aeruginosa [24] = test: Biofilm degradation activity against Pseudomonas aeruginosa ATCC 9027 assessed as biofilm formation at antibacterial MIC incubated for 24 hrs compound added post-biofilm formation by total biomass crystal violet staining-based method; assay type: functional
Staphylococcus aureus [25] = test: Antibiofilm activity against Staphylococcus aureus ATCC 25923 assessed as reduction in biofilm biomass at >2.5 uM incubated for 24 hrs compound added prior to bacterial biofilm formation by crystal violet staining based assay; assay type: functional, organism-based
Escherichia coli [26] = test: Antibacterial activity against […] Escherichia coli ATCC 8739 assessed as reduction in bacterial growth incubated for 48 hrs in presence of 50 ug/ml […], PAbetaN by microbroth dilution method; assay type: functional; conditions: ATCC 8739, 48 h
Escherichia coli [27] = test: Bactericidal activity against […] Escherichia coli ATCC 8739 assessed as reduction in bacterial survival incubated for 48 hrs in presence of 50 ug/ml […], PAbetaN by microbroth dilution method; assay type: functional; conditions: ATCC 8739, 48 h
HEK293 [28] = test: Cytotoxicity against human HEK293 cells assessed as cell viability upto 20 uM incubated for 72 hrs by MTT assay; assay type: cell-based; conditions: hek293, 72 h
HEK293 [29] = test: Cytotoxicity against human HEK293 cells assessed as changes in cell morphology upto 20 uM incubated for 72 hrs by MTT assay; assay type: cell-based; conditions: hek293, 72 h
Pseudomonas aeruginosa [30] = test: Biofilm degradation activity against Pseudomonas aeruginosa ATCC 9027 assessed as biofilm formation at 2 times antibacterial MIC incubated for 24 hrs compound added post-biofilm formation by total biomass crystal violet staining-based method; assay type: functional
Pseudomonas aeruginosa [31] = test: Biofilm degradation activity against Pseudomonas aeruginosa ATCC 9027 assessed as biofilm formation at 4 times antibacterial MIC incubated for 24 hrs compound added post-biofilm formation by total biomass crystal violet staining-based method; assay type: functional
Staphylococcus aureus [32] = test: Biofilm degradation activity against Staphylococcus aureus ATCC 6538 assessed as biofilm formation at antibacterial MIC incubated for 24 hrs compound added post-biofilm formation by total biomass crystal violet staining-based method; assay type: functional
Staphylococcus aureus [33] = test: Biofilm degradation activity against Staphylococcus aureus ATCC 6538 assessed as biofilm formation at 4 times antibacterial MIC incubated for 24 hrs compound added post-biofilm formation by total biomass crystal violet staining-based method; assay type: functional

Compound | log K [1] | MIC (Staphylococcus aureus [2]) | MIC (Staphylococcus aureus [3]) | MBC (Staphylococcus aureus [4]) | MIC [5] | MBC [6] | MIC (Enterococcus hirae) | MIC (Bacillus spizizenii) | MBC (Escherichia coli [7]) | MBC (Pseudomonas aeruginosa [8]) | MIC (Proteus vulgaris [9]) | MBC (Proteus vulgaris [10]) | MIC (Staphylococcus aureus [11]) | MBC (Staphylococcus aureus [12]) | MIC (Streptococcus pneumoniae [13]) | MBC (Streptococcus pneumoniae [14]) | MIC (Serratia marcescens [15]) | MBC (Serratia marcescens [16]) | inhibition (INH) (Staphylococcus aureus [17]) | Activity [18] | further results
CCn1cc(C(=O)O)c(=O)c2cc(F)c(N3CC[N+]4(CN5C(=N4)C(C(=O)O)=Cc4ccccc45)C(C)C3)c(F)c21.[Cl-] (stereo not given) | -0.265 | 2 µg/mL | 2 µg/mL | 2 µg/mL | 4 µg/mL | 4 µg/mL | 512 µg/mL | 0.5 µg/mL | 0.5 µg/mL | 1 µg/mL | 0.125 µg/mL | 0.125 µg/mL | 4 µg/mL | 16 µg/mL | 512 µg/mL | 512 µg/mL | 2 µg/mL | 2 µg/mL | 100% | 11% | Activity [19]: 97%; Activity (Pseudomonas aeruginosa [20]): 53%; Activity (Staphylococcus aureus [21]): 69%; Activity (Pseudomonas aeruginosa [22]): 73%; Activity (Staphylococcus aureus [23]): 47%; Activity (Pseudomonas aeruginosa [24]): 65%; inhibition (Staphylococcus aureus [25]): Active; MIC (Escherichia coli [26]): 0.125 µg/mL; MBC (Escherichia coli [27]): 0.25 µg/mL; Activity (HEK293 [28]): Non-Toxic; Activity (HEK293 [29]): Non-Toxic; Activity (Pseudomonas aeruginosa [30]): 51%; Activity (Pseudomonas aeruginosa [31]): 47%; Activity (Staphylococcus aureus [32]): 60%; Activity (Staphylococcus aureus [33]): 6%
O=C(O)C1=Cc2ccccc2N2C[N+]3(CCN(c4cc5c(cc4F)c(=O)c(C(=O)O)cn5C4CC4)CC3)N=C12.[Cl-] | -0.1527 | 4 µg/mL | 4 µg/mL | 4 µg/mL | 2 µg/mL | 2 µg/mL | > 512 µg/mL | 1 µg/mL | 2 µg/mL | 2 µg/mL | 0.063 µg/mL | 0.063 µg/mL | 2 µg/mL | 2 µg/mL | 256 µg/mL | 512 µg/mL | 1 µg/mL | 2 µg/mL | 100% | 34% | Activity [19]: 97%; Activity (Pseudomonas aeruginosa [20]): 13%; Activity (Staphylococcus aureus [21]): 6%; Activity (Pseudomonas aeruginosa [22]): 26%; Activity (Staphylococcus aureus [23]): 6%; Activity (Pseudomonas aeruginosa [24]): 49%; inhibition (Staphylococcus aureus [25]): Active; MIC (Escherichia coli [26]): 0.25 µg/mL; MBC (Escherichia coli [27]): 0.5 µg/mL; Activity (HEK293 [28]): Non-Toxic; Activity (HEK293 [29]): Non-Toxic; Activity (Pseudomonas aeruginosa [30]): 39%; Activity (Pseudomonas aeruginosa [31]): 30%; Activity (Staphylococcus aureus [32]): 21%; Activity (Staphylococcus aureus [33]): 10%
CCn1cc(C(=O)O)c(=O)c2cc(F)c(N3CC[N+]4(CC3)CN3C(=N4)C(C(=O)O)=Cc4ccccc43)nc21.[Cl-] | -0.2387 | 8 µg/mL | 8 µg/mL | 8 µg/mL | 4 µg/mL | 4 µg/mL | 512 µg/mL | 2 µg/mL | 2 µg/mL | 1 µg/mL | 0.25 µg/mL | 0.5 µg/mL | 4 µg/mL | 16 µg/mL | 256 µg/mL | 512 µg/mL | 8 µg/mL | 16 µg/mL | 100% | 73% | Activity [19]: 100%; Activity (Pseudomonas aeruginosa [20]): 16%; Activity (Staphylococcus aureus [21]): 18%; Activity (Pseudomonas aeruginosa [22]): 52%; Activity (Staphylococcus aureus [23]): 35%; Activity (Pseudomonas aeruginosa [24]): 61%; inhibition (Staphylococcus aureus [25]): Active; MIC (Escherichia coli [26]): 0.5 µg/mL; MBC (Escherichia coli [27]): 1 µg/mL; Activity (HEK293 [28]): Non-Toxic; Activity (HEK293 [29]): Non-Toxic; Activity (Pseudomonas aeruginosa [30]): 43%; Activity (Pseudomonas aeruginosa [31]): 42%; Activity (Staphylococcus aureus [32]): 45%; Activity (Staphylococcus aureus [33]): 16%
